Here are results for 3 compounds from publication PMC7805408, “Filaggrin Polymorphisms and the Uptake of Chemicals through the Skin—A Human Experimental Study” (Environmental Health Perspectives, 2021).

Series [1] can be described thus: Population toxicokinetic analysis of dermal absorption and disposition (three-compartment model, Monolix). The format is in vivo, human. Particulars: for Lag time (mean±SD): dermal absorption; for Lag time (mean±SD) / Absorption rate constant (mean±SD): unadjusted; for Absorption rate constant (mean±SD): dermal; for Rate constant K21 (mean ± SD): from the central to the peripheral compartment; for Rate constant K12 (mean ± SD): from the peripheral to the central compartment. The protocol:
Dermal absorption and disposition were assessed by population toxicokinetic analysis. A three-compartment structural model representing skin and central and peripheral tissues was used (Figure 2). The skin compartment encompasses a lag time for skin penetration ( Tlag ) and an absorption rate constant ( ka ). Urinary excretion from the central compartment was described by an elimination rate constant ( ke ), and exchange between the central and peripheral compartments was described by two rate constants ( k12 and k21 ). All rate constants are first order.
Figure 2. Compartmental model used in the toxicokinetic analysis: lag time for skin penetration ( Tlag , h), first order skin absorption constant ( Ka , h-1), volume of central compartment (V, L), peripheral compartment (P) first order transfer rate constants ( k12 and k21 , h^−1 ), and first order elimination rate constant (k, h^−1 ).
The input data were the dermally applied dose (nmol) at time zero and the mid–time point (h) and the excretion rate (nmol/h) of each chemical in the urine samples. Subjects excluded from the AUC analysis were also excluded from the toxicokinetic analysis (one FLG null carrier and one wt carrier for oxybenzone).
The software Monolix (version 2019R2; Lixoft) was used to estimate the model parameters. The built-in statistical model consists of an observation model and an individual model based on the structural toxicokinetic model. The observational model was set to a normal distribution, and a residual error model included in the observational model was used as proposed by the software after initial analysis. A lognormally distributed random effect was added to all model parameters. Correlations between parameters were accounted for if proposed by the software. The different genotypes (FLG null/wt, and FLG null/wt CNV20–22/wt CNV23–24) were entered as categorical covariates.

For series [2] the following is noted: ref http://www.popstoolkit.com/tools/HHRA/TDI_USEPA.aspx; cited from earlier work.
Series [3] relates to estrogen receptor 1, androgen receptor, and cytochrome P450 aromatase B. Further details: method as in Blüthgen et al. 2012. Particulars: zebrafish, 84μg/L; ref Blüthgen et al. 2012; cited from earlier work.
On the set-up of series [4]: method as in Okereke et al. 1993. The conditions noted are these: rats; ref Okereke et al. 1993; cited from earlier work.
On the set-up of series [5]: method as in Santamaria et al. 2020. Particulars: ref Santamaria et al. 2020; cited from earlier work.
For series [6] the following is noted: in vivo, po; cited from earlier work.
For series [7] the following is noted: ref https://efsa.onlinelibrary.wiley.com/doi/pdf/10.2903/j.efsa.2006.61r; cited from earlier work.
The subject of series [8] is aryl hydrocarbon receptor. Further details: method as in Medjakovic et al. 2014. The conditions noted are these: in vitro; ref Medjakovic et al. 2014; cited from earlier work.
[9] abbreviates: FLG null carriers, null/CNV grouping.
Setting [10] is: FLG null, null vs wt grouping (Table S4).
Where [11] appears, read: FLG null, null/CNV grouping (Table S9).
Setting [12] is: FLG wt, null vs wt grouping (Table S4).

Turning to `c1cc2ccc3cccc4ccc(c1)c2c34` [Pyrene, pyrene], the “Absorption rate constant (mean ± SD), adjusted for BMI, age and sex” value in series [1] (FLG null (Table S7)) is 0.23 ± 0.09 h⁻¹; in series [1] (FLG wt CNV20–22 (Table S7)), 0.23 ± 0.10 h⁻¹; in series [1] (FLG wt CNV23–24 (Table S7)) it was 0.14 ± 0.05 h⁻¹. Moreover, the “Lag time (mean ± SD), adjusted for BMI, age and sex” value turned out to be 0.89 ± 0.15 h in series [1] (FLG null (Table S7)), 1.06 ± 0.17 h in series [1] (FLG wt CNV20–22 (Table S7)) and 1.34 ± 0.32 h in series [1] (FLG wt CNV23–24 (Table S7)). The “Excretion rate constant K (mean ± SD)” value in series [1] (FLG null (Table S9)) was 0.17 ± 0.02 h⁻¹; in series [1] (FLG wt CNV20–22 (Table S9)) it was 0.18 ± 0.04 h⁻¹; in series [1] (FLG wt CNV23–24 (Table S9)), 0.18 ± 0.02 h⁻¹. The results for the “Lag time (mean±SD)” value in series [1] (setting [9]), in series [1] (FLG wt CNV20–22 carriers) and in series [1] (FLG wt CNV23–24 carriers) were 0.91 ± 0.12 h, 1.06 ± 0.16 h and 1.41 ± 0.29 h, respectively. The “Absorption rate constant (mean±SD)” value is 0.16 ± 0.05 h⁻¹ in series [1] (setting [9]), 0.14 ± 0.03 h⁻¹ in series [1] (FLG wt CNV20–22 carriers) and 0.11 ± 0.03 h⁻¹ in series [1] (FLG wt CNV23–24 carriers). The “Dermal absorption rate constant (mean ± SD)” value is 0.17 ± 0.06 h⁻¹ in series [1] (setting [10]) and 0.15 ± 0.06 h⁻¹ in series [1] (setting [12]). The “Lag time for dermal absorption (mean ± SD)” value was 0.88 ± 0.13 h in series [1] (setting [10]) and 1.20 ± 0.25 h in series [1] (setting [12]). Also, the “Volume of central compartment (mean ± SD)” value in series [1] (setting [11]) came to 876 ± 344 L; in series [1] (FLG wt CNV20–22 (Table S9)) it was 954 ± 410 L; in series [1] (FLG wt CNV23–24 (Table S9)) it was 1232 ± 541 L. Besides, in series [1] (Table 2), the “Mean dermal absorption rate constant higher for FLG null carriers than wt carriers with CNV23–24” value stood at 45%. In addition, the “Rate constant K21 (mean ± SD)” value in series [1] (FLG null (Table S9)) was 0.02 ± 0.0008 h⁻¹; in series [1] (FLG wt CNV20–22 (Table S9)) it was 0.02 ± 0.0006 h⁻¹; in series [1] (FLG wt CNV23–24 (Table S9)), 0.02 ± 0.0005 h⁻¹. The “Rate constant K12 (mean ± SD)” value in series [1] (FLG null (Table S9)) was determined as 0.12 ± 0.04 h⁻¹; in series [1] (FLG wt CNV20–22 (Table S9)) it was 0.12 ± 0.03 h⁻¹; in series [1] (FLG wt CNV23–24 (Table S9)), 0.11 ± 0.02 h⁻¹. For the same compound, in series [2], the “tolerable daily intake (TDI)” value was 0.03 mg/kg.
Take `COc1ccc(C(=O)c2ccccc2)c(O)c1` [Oxybenzone, (2-Hydroxy-4-methoxyphenyl)-phenylmethanone]: the “Absorption rate constant (mean ± SD), adjusted for BMI, age and sex” value in series [1] (FLG null (Table S7)) is 0.22 ± 0.06 h⁻¹; in series [1] (FLG wt CNV20–22 (Table S7)), 0.20 ± 0.06 h⁻¹; in series [1] (FLG wt CNV23–24 (Table S7)), 0.13 ± 0.04 h⁻¹. Moreover, the figures for the “Lag time (mean ± SD), adjusted for BMI, age and sex” value in series [1] (FLG null (Table S7)), in series [1] (FLG wt CNV20–22 (Table S7)) and in series [1] (FLG wt CNV23–24 (Table S7)) were 0.14 ± 0.18 h, 0.04 ± 0.04 h and 0.13 ± 0.17 h, respectively. Also, the “Excretion rate constant K (mean ± SD)” value was determined as 0.05 ± 0.02 h⁻¹ in series [1] (FLG null (Table S9)), 0.05 ± 0.01 h⁻¹ in series [1] (FLG wt CNV20–22 (Table S9)) and 0.06 ± 0.04 h⁻¹ in series [1] (FLG wt CNV23–24 (Table S9)). The “Lag time (mean±SD)” value in series [1] (setting [9]) was 0.07 ± 0.01 h; in series [1] (FLG wt CNV20–22 carriers), 0.04 ± 0.009 h; in series [1] (FLG wt CNV23–24 carriers), 0.23 ± 0.13 h. The “Absorption rate constant (mean±SD)” value in series [1] (setting [9]) was 0.23 ± 0.07 h⁻¹; in series [1] (FLG wt CNV20–22 carriers) it was 0.22 ± 0.08 h⁻¹; in series [1] (FLG wt CNV23–24 carriers) it was 0.13 ± .04 h⁻¹. The results for the “Dermal absorption rate constant (mean ± SD)” value in series [1] (setting [10]) and in series [1] (setting [12]) were 0.29 ± 0.08 h⁻¹ and 0.22 ± 0.09 h⁻¹, respectively. In addition, the “Lag time for dermal absorption (mean ± SD)” value in series [1] (setting [10]) was 0.10 ± 0.02 h; in series [1] (setting [12]), 0.13 ± 0.07 h. The “Volume of central compartment (mean ± SD)” value was 71.5 ± 32.4 L in series [1] (setting [11]), 81.5 ± 42.7 L in series [1] (FLG wt CNV20–22 (Table S9)) and 103 ± 52.36 L in series [1] (FLG wt CNV23–24 (Table S9)). Moreover, the “Mean dermal absorption rate constant higher for FLG null carriers than wt carriers with CNV23–24” value in series [1] (Table 2) was found to be 77%. In addition, the “Rate constant K21 (mean ± SD)” value was determined as 0.01 ± 0.006 h⁻¹ in series [1] (FLG null (Table S9)), 0.01 ± 0.008 h⁻¹ in series [1] (FLG wt CNV20–22 (Table S9)) and 0.007 ± 0.003 h⁻¹ in series [1] (FLG wt CNV23–24 (Table S9)). The “Rate constant K12 (mean ± SD)” value in series [1] (FLG null (Table S9)) turned out to be 0.31 ± 0.02 h⁻¹; in series [1] (FLG wt CNV20–22 (Table S9)), 0.31 ± 0.02 h⁻¹; in series [1] (FLG wt CNV23–24 (Table S9)), 0.32 ± 0.02 h⁻¹. The “Dermal absorption rate constant higher for FLG null compared with wt carriers” value in series [1] (null vs wt grouping (Table S4)) worked out at 32%. The “Expression of estrogen receptor 1, androgen receptor, and cytochrome P450 aromatase B” value in series [3] is “decreased expression”. The “Share of what was found in urine in the form of the parent compound, free and conjugated with glucuronic acid” value in series [4] is on record as “About 50%”. Besides, the Effect in mice entry in series [5] is “affect fetal growth and sex ratio”.
Take `Cc1cc(C)nc(Nc2ccccc2)n1` [Pyrimethanil, 4,6-dimethyl-N-phenyl-2-pyrimidinamine]: in series [1] (human, in vivo), the “Dermal absorption rate constant higher for FLG null compared with wt carriers” value amounted to 18% and the “Mean dermal absorption rate constant higher for FLG null carriers than wt carriers with CNV23–24” value is on record as 50%. The “Share of the compound found in urine as OH-pyrimethanil” value in series [6] is reported as 80%. Moreover, in series [7], the acute toxicity result is “low acute toxicity”. Moreover, in series [8], the “aryl hydrocarbon receptor activity” value is “aryl hydrocarbon receptor agonist”.
